Our source for the IC50 values is US8067445B2, “N,N-disubstituted aminoalkylbiphenyl antagonists of prostaglandin D2 receptors” (Panmira Pharmaceuticals, LLC, priority 2008, dated 2011).

Molecules are shown by their SMILES.

One test addresses T1, human DP2 receptor (Homo sapiens, UniProt Q9Y5Y4).
T1 construct: expressed in transfected cells
T1 sequence (Q9Y5Y4 1-395): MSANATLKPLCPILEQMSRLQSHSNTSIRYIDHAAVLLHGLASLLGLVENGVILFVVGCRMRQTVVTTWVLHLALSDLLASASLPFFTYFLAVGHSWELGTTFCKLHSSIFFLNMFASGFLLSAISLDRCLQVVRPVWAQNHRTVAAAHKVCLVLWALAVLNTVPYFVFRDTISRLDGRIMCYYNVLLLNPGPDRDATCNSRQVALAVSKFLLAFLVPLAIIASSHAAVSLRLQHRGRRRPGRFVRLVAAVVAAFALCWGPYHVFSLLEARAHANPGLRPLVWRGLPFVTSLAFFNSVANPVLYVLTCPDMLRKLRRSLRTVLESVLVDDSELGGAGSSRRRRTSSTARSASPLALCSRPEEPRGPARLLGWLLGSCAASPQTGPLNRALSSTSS
The test is described as follows: DP2/CRTH2 radioligand binding assay ([3H]PGD2). To be noted: [3H]PGD2 binding, membranes of HEK293 cells expressing human DP2; read-out: hDP2. The method, boiled down: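 Membranes from HEK293 cells stably expressing recombinant human DP2 incubated 60 min at room temperature with 1 nM [3H]PGD2 and compound in pH 7.4 Hepes/MnCl2/EDTA buffer, ± 0.2% human serum albumin. Bound radioactivity measured after filtration; non-specific binding defined with 10 μM PGD2. IC50 from titration curves.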

The target in another test is T2, human DP1 receptor (Homo sapiens, UniProt Q13258).
T2 construct: tissue Biological Specialty Corporation; host or cells: human platelet membranes
T2 sequence (Q13258 1-359): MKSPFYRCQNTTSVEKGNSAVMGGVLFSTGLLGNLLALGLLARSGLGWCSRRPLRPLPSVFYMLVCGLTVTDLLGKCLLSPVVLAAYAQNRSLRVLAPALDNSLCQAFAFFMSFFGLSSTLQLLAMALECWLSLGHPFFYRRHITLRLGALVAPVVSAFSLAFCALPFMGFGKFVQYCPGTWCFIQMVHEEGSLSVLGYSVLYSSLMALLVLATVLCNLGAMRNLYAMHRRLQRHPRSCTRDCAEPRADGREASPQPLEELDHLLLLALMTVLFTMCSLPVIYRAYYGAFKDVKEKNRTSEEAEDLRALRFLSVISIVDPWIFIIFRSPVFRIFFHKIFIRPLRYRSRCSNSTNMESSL
Briefly: DP1 radioligand binding assay ([3H]BWA868C, platelet membranes). The following applies: [3H]BWA868C binding, human platelet membranes; read-out: hDP1. The essentials:
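Human platelet membranes (20 μg protein/well) incubated 60 min at room temperature with 2 nM [3H]BWA868C and compound in 50 mM Hepes, 10 mM MnCl2, 1 mM EDTA, pH 7.4, ± 0.2% human serum albumin. Bound radioactivity measured after filtration; nonspecific binding defined with 10 μM BWA868C; IC50 from titration curves.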

The target in test [1] is T3, recombinant human CRTH2 receptor (Homo sapiens, UniProt Q9Y5Y4).
T3 construct: expressed in transfected cells
T3 sequence (Q9Y5Y4 1-395): T1 sequence (Q9Y5Y4 1-395)
Briefly: GTPγS binding assay. The class given is biochemical. To be noted: +HSA (0.2% human serum albumin), 80 nM PGD2, CHO cell membranes; read-out: hDP2 GTPγS μM (+HSA). As to the method:
The ability of a compound to inhibit binding of GTP to DP2 is assessed via a membrane GTPγS assay. CHO cells stably expressing the recombinant human CRTH2 receptor are resuspended in 10 mM Hepes, 7.4 containing 1 mM DTT, lysed and centrifuged at 75,000×g to pellet the membranes. The membranes are resuspended in 10 mM Hepes, 7.4 containing 1 mM DTT and 10% glycerol. […] The reactions are terminated by rapid filtration through Whatman GF/B glass fibre filter plates. The filter plates are washed 3 times with 1 ml cold Assay Buffer and dried. Scintillant is then added to the plates and the radioactivity retained on the filters is determined on a Packard TopCount (Perkin Elmer). Specific binding is determined as total radioactive binding minus non-specific binding in the absence of the ligand (80 nM PGD2). IC50s were determined using Graphpad prism analysis of drug titration curves.
A general note: Binding of GTPγS marks nucleotide exchange on a G protein.

For `CCN(Cc1cc(C(F)(F)F)ccc1-c1cc(CC(=O)O)cc(C(F)(F)F)c1)C(=O)OCc1ccccc1` [Compound 1-109, {2′-[(Benzyloxycarbonyl-ethyl-amino)-methyl]-5,4′-bis-trifluoromethyl-biphenyl-3-yl}-acetic acid], the IC50 was < 300 nM at human DP2 receptor, 1000 to 30000 nM on human DP1 receptor and < 0.3 µM in test [1].
For `CCN(Cc1cc(C(F)(F)F)ccc1-c1cc(Cl)cc(CC(=O)O)c1)C(=O)OCc1ccccc1` [Compound 1-108, {2′-[(Benzyloxycarbonyl-ethyl-amino)-methyl]-5-chloro-4′-trifluoromethyl-biphenyl-3-yl}-acetic acid] the same measures were < 300 nM, 1000 to 30000 nM and < 0.3 µM.
With `COc1ccc(CC(=O)O)cc1-c1ccc(C(F)(F)F)cc1CN(CC(=O)O)C(C)=O` [Compound 1-8, {2′-[(Acetyl-carboxymethyl-amino)-methyl]-6-methoxy-4′-trifluoromethyl-biphenyl-3-yl}-acetic acid], the IC50 on human DP2 receptor was in the range of 1000 to 30000 nM; on human DP1 receptor it was 1000 to 30000 nM; in test [1], 1 to 30 µM.
With `COC(=O)N(CCc1ccccc1)Cc1cc(C(F)(F)F)ccc1-c1cc(CC(=O)O)ccc1OC` [Compound 1-25, {6-Methoxy-2′-[(methoxycarbonyl-phenethyl-amino)-methyl]-4′-trifluoromethyl-biphenyl-3-yl}-acetic acid], the values for the IC50 (on human DP2 receptor; at human DP1 receptor; in test [1]) were < 300 nM, 1000 to 30000 nM and < 0.3 µM, respectively.
On the same counts, the results for `CCN(Cc1cc(C(F)(F)F)ccc1-c1cc(CC(=O)O)ccc1OC)/C(=N/C#N)NCc1ccc(OC)cc1` [Compound 1-114, {2′-[N′-Cyano-N-ethyl-N″-(4-methoxy-benzyl)-guanidinomethyl]-6-methoxy-4′-trifluoromethyl-biphenyl-3-yl}-acetic acid] are < 300 nM, 1000 to 30000 nM and < 0.3 µM.
On the same counts, the results for `CCN(Cc1cc(C(F)(F)F)ccc1-c1cc(CC(=O)O)ccc1OC)C(=O)N1CCCC1` [Compound 1-97, (2′-{[Ethyl-(pyrrolidine-1-carbonyl)-amino]-methyl}-6-methoxy-4′-trifluoromethyl-biphenyl-3-yl)-acetic acid] are < 300 nM, 1000 to 30000 nM and < 0.3 µM.
`CCN(Cc1cc(C(F)(F)F)ccc1-c1cc(CC(=O)O)ccc1OC)/C(=N/C#N)NCc1ccccc1` [Compound 1-111, [2′-(N′-Benzyl-N″-cyano-N-ethyl-guanidinomethyl)-6-methoxy-4′-trifluoromethyl-biphenyl-3-yl]-acetic acid]: the values for the IC50 (at human DP2 receptor; on human DP1 receptor; in test [1]) were < 300 nM, 1000 to 30000 nM and < 0.3 µM, respectively.
In the case of `COC(=O)N(Cc1ccccc1)Cc1cc(C(F)(F)F)ccc1-c1cc(CC(=O)O)ccc1OC` [Compound 1-24, {2′-[(Benzyl-methoxycarbonyl-amino)-methyl]-6-methoxy-4′-trifluoromethyl-biphenyl-3-yl}-acetic acid], the IC50 was < 300 nM at human DP2 receptor, 1000 to 30000 nM on human DP1 receptor and < 0.3 µM in test [1].
With `CCN(Cc1cc(C(F)(F)F)ccc1-c1cc(CC(=O)O)ccc1OCc1ccccc1)C(=O)OCc1ccccc1` [Compound 1-128, {6-Benzyloxy-2′-[(benzyloxycarbonyl-ethyl-amino)-methyl]-4′-trifluoromethyl-biphenyl-3-yl}-acetic acid], the results for the IC50 (on human DP2 receptor; at human DP1 receptor; in test [1]) were < 300 nM, 300 to 1000 nM and < 0.3 µM, respectively.
On the same counts, the results for `CCOc1ccc(-c2ccc(-c3cc(CC(=O)O)ccc3OC)c(CN(CC)C(=O)C3CC3)c2)cn1` [Compound 1-227, [2′-[(Cyclopropanecarbonyl-ethyl-amino)-methyl]-4′-(6-ethoxy-pyridin-3-yl)-6-methoxy-biphenyl-3-yl]-acetic acid] are < 300 nM, 1000 to 30000 nM and < 0.3 µM.
